{"source": "patent US20220249539A1", "about": "“BOLAAMPHIPHILIC COMPOUNDS, COMPOSITIONS AND USES THEREOF” (priority 2015, published 2022)", "key": {"[1]": {"test": "Fluorescence in mouse cerebral cortex after i.v. injection of albumin-FITC", "format": "in vivo", "conditions": "FIGS. 5A, 5B", "from_the_text": "In addition to the peptide leu-enkephalin, and the small molecules: CF, uranyl acetate, kyotorphin and sucrose, the inventors have also successfully encapsulated in these vesicles the proteins albumin and trypsinogen and the polysaccharide Dextran-FITC (MW 9000)."}, "[2]": {"system": "patients' gliomas implanted in mice", "conditions": "cited from earlier work"}, "GBM": {"system": "GBM", "conditions": "very little gets through the BBB and reaches the tumor; cited from earlier work"}}}
{"compound": "un-encapsulated albumin-FITC: albumin-FITC (non-encapsulated)", "values": [{"measurement": "delivery of albumin-FITC to the brain (brain accumulation)", "setting": "[1]", "value": "little, if any, brain accumulation"}]}
{"compound": "CCc1c2c(nc3ccc(OC(=O)N4CCC(N5CCCCC5)CC4)cc13)-c1cc3c(c(=O)n1C2)COC(=O)[C@]3(O)CC", "note": "[CPT-11, (S)-4,11-diethyl-3,4,12,14-tetrahydro-4-hydroxy-3,14-dioxo1H-pyrano[3′,4′:6,7]-indolizino[1,2-b]quinolin-9-yl-[1,4′bipiperidine]-1′-carboxylate]", "values": [{"measurement": "potency rank against patients' gliomas implanted in mice", "setting": "[2]; out of 40 drugs tested", "value": "the most potent chemotherapeutic agent"}, {"measurement": "effectiveness against tumors tested", "setting": "[2]; patients' gliomas implanted in mice", "value": "effective against every tumor tested"}, {"measurement": "outcome of attempts to treat GBM patients", "setting": "GBM", "value": "unsuccessful"}]}
